Experiments:
NCI-1H226 = experiment: Mesothelioma cell line proliferation assay, H226 (ATPlite); assay type: cell-based; conditions: Homo sapiens, NCI-H226, 144 h, 6 days with compound
Method: Mesothelioma cell lines, NCI-1H226 and NCI-1H2052 (all sourced from the ATCC cell culture collection) are plated in 96-well plates (Corning® 96 Well White Polystyrene Microplate clear flat bottom, white polystyrene (TC-Treated)), at 1500 cells/well in full medium (RPMI 1640 ATCC modification with L-glutamine, HEPES, Phenol Red, Sodium Pyruvate, High glucose, Low sodium bicarbonate and 10% fetal bovine serum). Cells are incubated overnight at 37° C. in an incubator with 5% C02. Then compounds, dissolved in DMSO, are added in dose-response. Cells are incubated with compound dilutions for another 6 days at 37° C. in an incubator with 5% C02. Cell viability is quantitated using the ATPlite kit (Perkin-Elmer) and the luminescence is read-out using an Envision instrument (Perkin-Elmer). The amount of relative light units produced using the ATPlite kit is used to calculated percent of inhibition.
The activities of some example compounds are depicted in the table below. The activity ranges A, B and C refer to EC50 values in the mesothelioma cell line proliferation assay as described as follows: “A”: EC50<1 μM; “B”: 1 μM s EC50≤10 μM and “C”: EC50≥10 μM; NT: not tested.

SCC-9 = experiment: Cancer cell line proliferation assay (CellTiter-Glo), SCC-9; assay type: cell-based; conditions: Homo sapiens, 144 h, Head & neck (squamous), FAT1 HOM DEL, 6 days
Method: (§1) All the cell lines are cultured in the media supplemented with 10-20% fetal bovine serum, in the temperature of 37° C., 5% CO2 and 95% humidity. The indicated cell lines (all sourced from the ATCC cell culture collection) are plated in 96-Well Flat Clear Bottom Black Polystyrene TC-Treated Microplates with the final cell density of 4×10^3 cells/well. Cells are incubated overnight and then compounds, dissolved in DMSO, are added in dose-response. Cells are incubated with compound dilutions for another 6 days. Cell viability is quantitated using CellTiter-Glo reagent (Perkin Elmer) and measured using an EnVision Multi Label Reader.

RL95-2 = experiment: Cancer cell line proliferation assay (CellTiter-Glo), RL95-2; assay type: cell-based; conditions: Homo sapiens, 144 h, Endometrial (adeno-squamous), LATS1 HOM DEL, 6 days
Method: as §1

C-33 A = experiment: Cancer cell line proliferation assay (CellTiter-Glo), C-33 A; assay type: cell-based; conditions: Homo sapiens, 144 h, Cervical (squamous), L914Wfs*10 LATS2, 6 days
Method: as §1

Calu-1 = experiment: Cancer cell line proliferation assay (CellTiter-Glo), Calu-1; assay type: cell-based; conditions: Homo sapiens, 144 h, Lung (squamous), NF2 HOM DEL/LATS2 HOM DEL, 6 days
Method: as §1

NCI-H226 tumor cells = experiment: In vivo efficacy in a subcutaneous human lung cancer xenograft model (NCI-H226 mesothelioma); design: species or system Female BALB/c Nude Mice; conditions: 100 mg/kg, p.o., BID × 21 days
Method: The NCI-H226 tumor cells were maintained in vitro with RPMI-1640 medium supplemented with 10% fetal bovine serum at 37° C. in an atmosphere of 5% CO2 in air. The cells in exponential growth phase were harvested and the cell numbers were quantitated by hemocytometer and cell viability was quantified by Trypan Blue counting before tumor inoculation. Balb/c nude mouse were inoculated with subcutaneously in the right front flank regions with 1×10^7 of NCI-H226 tumor cells in 0.1 mL of PBS mixed with 0.1 ml of Matrigel (1:1) for tumor development. All animals were randomized based on the tumor sizes as well as body weights and randomly allocated to the different study groups (8 mice per group). The randomization started when the mean tumor size at the right rear flank region had reached approximately 172 mm^3. The date of randomization was denoted as Day 0.
Cpd. No. 084 was formulated in Vehicle 1 (PEG400 (40%)+PG (30%)+WFI (30%)) as a 10 mg/ml solution, and dosed orally, twice daily, using 10 μl/g (final dose is 100 mg/kg) for 21 days. Cpd. No. 001 was formulated in Vehicle 2 (PEG400 (65%)+PG (20%)+WFI (15%)) as a 10 mg/ml solution, and dosed orally, twice daily, using 10 μl/g (final dose is 100 mg/kg) for 21 days. After tumor cell inoculation, the animals were checked daily for morbidity and mortality. At the time of routine monitoring, the animals were checked for any effects of tumor growth and treatments on behavior such as mobility, food and water consumption, body weight gain/loss (body weight was measured at least two times per week), and any other abnormalities. Mortality and observed clinical signs were recorded for individual animals. Tumor volumes were measured at least two times weekly in two dimensions using a caliper, and the volume was expressed in mm^3 using the formula: V=(L×W×W)/2, where V is tumor volume, L is tumor length (the longest tumor dimension) and W is tumor width (the longest tumor dimension perpendicular to L).
Tumor growth inhibition (TGI) was used as an indicator of antitumor activities, and was calculated from the relative tumor volumes of the control and treatment groups due to the variance of tumor volumes among groups at Day 0. TGI (%)=(1-T/C)×100%; T/C=MTVt/MTVc, MTVt: mean tumor volume in the treatment groups at a specific measurement day, MTVc: mean tumor volume in the control group at a specific measurement day. Moreover, the difference of TGIs between control and treatment groups was analyzed at a measurement day when all or most of the mice in the control groups were alive. In addition, body weight changes over time in each group were used as an index to evaluate the tolerability of test drugs, and were calculated from the average percentage of body weight changes of each individual mouse relative to their initial body weight at randomization using the following formula: group BW %=mean of ((BWt−BW0)/BW0×100%), BWt: body weight at Day t, BW0: body weight at Day 0.
To compare relative tumor volumes of different groups at a pre-specified day, we first used Bartlett's test to check the assumption of homogeneity of variance across all groups. When the p-value of Bartlett's test is >0.05, we run one-way ANOVA to test overall equality of means across all groups. If the p-value of the one-way ANOVA is <0.05, we further perform post hoc testing by running Tukey's HSD (honest significant difference) tests for all pairwise comparisons, and Dunnett's tests for comparing each treatment group with the vehicle group. When the p-value of Bartlett's test is <0.05, we run Kruskal-Wallis test to test overall equality of medians among all groups. If the p-value of the Kruskal-Wallis test is <0.05, we further perform post hoc testing by running Conover's non-parametric test for all pairwise comparisons or for comparing each treatment group with the vehicle group, both with single-step p-value adjustment. All tests were two-sided unless otherwise specified, and p-values<0.05 were regarded as statistically significant. […]

[1] = day 20, against the compound's own vehicle group

- GI50 (SCC-9): 50 nM
- GI50 (RL95-2): 50 nM
- GI50 (C-33 A): 100 nM
- GI50 (Calu-1): 120 nM
SMILES: C=CC(=O)NC1Cc2ccccc2N(c2ccc(C(F)(F)F)cc2)C1 (stereo not drawn) [compound 001, N-(1-(4-(trifluoromethyl)phenyl)-1,2,3,4-tetrahydroquinolin-3-yl)acrylamide]
- EC50 (NCI-1H226): < 1000 nM
- anti-tumor activity in the xenograft mesothelioma model (NCI-H226 tumor cells): highly statistically significant and strong anti-tumor activity
- Mean Tumor Volume (mm^3) on day 20 (NCI-H226 tumor cells; day 20, 8 mice per group): 217.26 ± 45.21 (8) mm^3
- T/C (%) (NCI-H226 tumor cells; [1]): 49.62%
- TGI (%) (NCI-H226 tumor cells; [1]): 50.38%

Source: patent publication US20240025856A1, “1,2,3,4-TETRAHYDROQUINOLINE DERIVATIVES AS INHIBITORS OF THE YAP/TAZ-TEAD ACTIVATION FOR TREATING CANCER” (KATHOLIEKE UNIVERSITEIT LEUVEN, priority 2020, published 2024)
